{
  "source": "patent US7071359B1",
  "about": "“Neuropathy improvers containing nitrogenous compounds as the active ingredient” (Teijin Limited, priority 1999, dated 2006)",
  "key": {"[1]": {"tested_on": "Mouse neuroblastoma Neuro2A cells", "test": "Promotion activity on the neurite outgrowth (1): proportion of cells with extended neurite", "type": "cell-based", "conditions": "for Proportion of cells with neurite (%) mean value ± standard error: 10 nM", "experimental": "(§1) Mouse neuroblastoma Neuro2A cells (obtained from DAINIPPON PHARMACEUTICAL CO., LTD.) were suspended with a density of 2.5×10^4 cells/mL in DMEM containing 10% FCS and 2 mM of Gln, and were plated on commercially available 24-well tissue culture plates with a quantity of 400 μL/well. After an overnight culture under the conditions where the temperature was 37° C., and the carbon dioxide content of the air was 5%, the media was exchanged to an identical media containing the test compound, and the culture was further continued for 24 hours. Then microscope photographs were taken with a 20× lens. Using the photographs, by counting the total number of cells in the field of view and the number of cells with extended neurite, the proportion of cells with extended neurite is calculated."}, "[2]": {"tested_on": "Mouse neuroblastoma Neuro2A cells", "test": "Promotion activity on the neurite outgrowth (2): length of neurite per cell", "type": "cell-based", "experimental": "as §1\nThe cells used and the performed culture method were identical to those in Reference example (1). After being cultured in a media containing the test compound for 24 hours, microscope photographs were taken with a 20× lens. […] Using image processing software, the area covered by the neurites were calculated, and, since the thickness used to mark the neurite was uniform, the analysis was performed considering that the area was proportional to the length, and allowing to compute the length of neurite per cell."}, "[3]": {"tested_on": "Bovine cerebral capillary endothelial cells", "test": "Permeability through the blood brain barrier: incorporation into bovine cerebral capillary endothelial cells", "type": "in vitro ADME", "conditions": "test compound 1 μM, 15 minutes, ethanol extraction, HPLC", "experimental": "Bovine cerebral capillary endothelial cells were cultured on a 100 mm diameter plate (coated with collagen I) to obtain confluency. The cells were cultured for 15 minutes in an incorporation media (141 mM NaCl, 4 mM KCl, 2 mM CaCl2, 1 mM […], 10 mM HEPES, 10 mM D-glucose) containing the test compound (1 μM), to incorporate the test compound into the cells. Then, the test compound incorporated into the cells was extracted with ethanol extraction, and quantified by HPLC. The rate of incorporation was calculated with the equation below. amount of test compound in the ethanol-extracted fraction/amount of test compound in the incorporation solution×100(%)"}, "[4]": {"tested_on": "Wistar male rats, model for Alzheimer's disease by the continuous intracerebroventricular administration of β-amyloid proteins", "test": "Step-through passive avoidance test in rats given β-amyloid protein continuously into the cerebral ventricle", "type": "in vivo, rat", "conditions": "Examples 44-47, β-amyloid protein alone 300 pmol/day, continuous intracerebroventricular by osmotic pump", "excerpt": "A step-through passive avoidance instrument made of two chambers separated by a guillotine door was used as the experimental apparatus. One chamber is an illuminated chamber made of transparent acrylic boards (floor: 15 cm×25 cm, height: 15 cm), the other chamber is a dark chamber made of black acryl boards (same dimensions). In addition, the floor of the dark chamber was equipped with a grid made of 4 mm diameter stainless steel pieces separated by 15 mm spacing. The grid was connected to an apparatus for delivering electric shocks (shock generator scrambler).\nFirst, the guillotine door was opened for one minute to let a rat freely explore the interior of the apparatus. Then, for acquisition trials, the door was closed and the rat was put into the illuminated chamber. 30 seconds later, the door was opened and immediately after the four legs of the rat were put inside the dark chamber, the door was closed and an electric shock was delivered. The strength of the electric shock was 0.5 mA for 5 seconds. The training was repeated until the rat remained in the illuminated chamber for more than 120 seconds when the rat was placed in the illuminated chamber immediately after the electric shock and the door was opened in a similar way. 24 hours after the acquisition trials, the rat was put into the illuminating chamber for retention trials, 30 seconds after, the guillotine door was opened, and the time taken for the four legs of the rat to enter the dark chamber was measured (step-through latency). The maximum observation time during retention trials was set to 300 seconds.\n(§2) 7 week old Wistar male rats (weight 220 to 250 g) were used (N=5 to 10).\n(§3) β-amyloid protein (1–42) was dissolved in 35% acetonitrile-0.1% trifluoroacetic acid in water, injected in a mini-osmotic pump, which had been set to deliver 300 pmol/day (volume: 230 μL, flow: 0.5 μL/hour), and connected to a dental syringe needle through a polyethylene tube. Animals in control group were connected to a pump to which β-amyloid protein (40–1) orvehicleonly was injected. […]"}, "[5]": {"tested_on": "Wistar male rats, model for Alzheimer's disease by the continuous intracerebroventricular administration of β-amyloid proteins", "test": "Y-maze test (spontaneous alternation behavior test) in rats given β-amyloid protein continuously into the cerebral ventricle", "type": "in vivo, rat", "conditions": "Examples 48-51, β-amyloid protein alone 300 pmol/day, continuous intracerebroventricular by osmotic pump", "experimental": "A Y-shaped maze made by connecting three arms having a length of 35 cm each, a wall height of 25 cm and a floor width of 10 cm at an angle of 120° with respect to each other. The apparatus was settled on the laboratory floor.\nA rat was placed at the extremity of one of the arms, was allowed to freely explore the maze for 8 minutes, and a record was taken of the order in which the arms were explored by the rat. By calling (A) the “Total arm entries”, and among them, by calling (B) the “Number of spontaneous alternations” which is the number of cases where 3 different arms were selected in sequence, the “Percentage of spontaneous alternations” was calculated with: (B/(A−2))×100.\nas §2\nas §3, with “injected. After anesthetizing the rats with pentobarbital (50 mg/Kg, i.p.), an incision was performed in each of their scalps, and following the brainatlas, holes were drilled in the cranium.” for “injected.”"}, "[6]": {"conditions": "listed as β-amyloid protein (1-42)"}, "[7]": {"conditions": "listed as β-amyloid protein (1–42)"}},
  "note": "Values joined by “and” are separate entries in the source; they are usually repeats but may differ in a detail not shown here. Identical values can stand only once.",
  "data": [
    {"molecule": "CCCCC[C@H](O)/C=C/[C@H]1[C@H](O)CC(=O)[C@@H]1CCCCCCC(=O)O", "note": "[PGE1]", "values": [
      {"measurement": "Proportion of cells with neurite (%) mean value ± standard error", "setting": "[1]; Example 52, 24 hours", "result": "26.0 ± 3.0", "unit": "%"},
      {"measurement": "Proportion of cells with neurite (%) mean value ± standard error", "setting": "[1]; Example 54, 24 hours", "result": "19.5 ± 1.9", "unit": "%"},
      {"measurement": "Promotion activity on the neurite outgrowth (value relative to PGE1)", "setting": "[1]; Example 56, 24 hours, 10 μM", "result": 1.00},
      {"measurement": "Promotion activity on the neurite outgrowth (value relative to PGE1)", "setting": "[1]; Example 57, 24 hours, 10 μM", "result": 1.00},
      {"measurement": "Promotion activity on the neurite outgrowth (value relative to PGE1)", "setting": "[1]; Example 58, 24 hours, 10 μM", "result": 1.00},
      {"measurement": "Length of neurite per single cell (pixel/cell) mean value ± standard error", "setting": "[2]; Example 53, 24 hours, 1 nM", "result": "14.2 ± 1.5", "unit": "pixel/cell"},
      {"measurement": "Length of neurite per single cell (pixel/cell) mean value ± standard error", "setting": "[2]; Example 55, 24 hours, 100 nM", "result": "5.7 ± 1.03", "unit": "pixel/cell"}
    ]},
    {"molecule": "CCCC[C@](C)(O)C/C=C/[C@@H]1[C@H]2CC(CCCCC(=O)O)=C[C@H]2C[C@H]1O", "note": "[Test compound B]", "values": [
      {"measurement": "Promotion activity on the neurite outgrowth (value relative to PGE1)", "setting": "[1]; Example 56, 24 hours, 10 μM", "result": 1.63},
      {"measurement": "Promotion activity on the neurite outgrowth (value relative to PGE1)", "setting": "[1]; Example 57, 24 hours, 0.1 μM (PGE1 at 10 μM)", "result": 1.12},
      {"measurement": "Rate of incorporation into bovine capillary endothelial cells (mean value of two experiments)", "setting": "[3]; Example 61", "result": "below detection limit"},
      {"measurement": "Rate of incorporation into bovine capillary endothelial cells (mean value of two experiments)", "setting": "[3]; Example 62", "result": "below detection limit"}
    ]},
    {"molecule": "Cc1cccc(C[C@@H](O)/C=C/[C@@H]2[C@H]3CC(CCCCCN4CCCC4)=C[C@H]3C[C@H]2O)c1", "note": "[Test compound C]", "values": [
      {"measurement": "Promotion activity on the neurite outgrowth (value relative to PGE1)", "setting": "[1]; Example 56, 24 hours, 10 μM", "result": 1.15}
    ]},
    {"molecule": "Cc1cccc(C[C@H](O)/C=C/[C@@H]2[C@H]3CC(CCCCCN(C)C)=C[C@H]3C[C@H]2O)c1", "note": "[Test compound D]", "values": [
      {"measurement": "Promotion activity on the neurite outgrowth (value relative to PGE1)", "setting": "[1]; Example 56, 24 hours, 10 μM", "result": 1.31}
    ]},
    {"molecule": "CCCC[C@](C)(O)C/C=C/[C@@H]1[C@H]2CC(CCCCCN(C)C)=C[C@H]2C[C@H]1O", "note": "[Test compound E]", "values": [
      {"measurement": "Promotion activity on the neurite outgrowth (value relative to PGE1)", "setting": "[1]; Example 56, 24 hours, 10 μM", "result": 1.58}
    ]},
    {"molecule": "β-amyloid protein(1-42): β-amyloid protein (1–42) given continuously into the cerebral ventricle by mini-osmotic pump to lower learning and memory in the rat model", "values": [
      {"measurement": "Time taken to move into the dark chamber during retention trials mean value ± standard error", "setting": "[4]", "result": "140.2 ± 53.8 (n = 5) seconds and 132.8 ± 58.1 (n = 5) seconds"},
      {"measurement": "Time taken to move into the dark chamber during retention trials mean value ± standard error", "setting": "[4]; [6]", "result": "191.7 ± 49.0", "unit": "s"},
      {"measurement": "Time taken to move into the dark chamber during retention trials mean value ± standard error", "setting": "[4]; [7]", "result": "a decrease in the ability of learning and memory was observed"},
      {"measurement": "Occurrence of spontaneous alternation behavior mean value ± standard error", "setting": "[5]; [6]", "result": "65.6 ± 3.4% and 66.5 ± 4.7% and 59.1 ± 3.0%"},
      {"measurement": "Occurrence of spontaneous alternation behavior mean value ± standard error", "setting": "[5]; [7]", "result": "a decrease in the ability of learning and memory was observed"}
    ]}
  ]
}
